Test results taken from article PMC8764613, “Engineering of CYP153A33 With Enhanced Ratio of Hydroxylation to Overoxidation Activity in Whole-Cell Biotransformation of Medium-Chain 1-Alkanols” (Frontiers in Bioengineering and Biotechnology, 2022).

Target: T1, CYP153A33 (Marinobacter nauticus, UniProt A1TY82)
T1 construct: gene Maqu_0600; co-expressed with P. putida CamA/CamB and E. coli FadL in E. coli BW25113(DE3) delta-fadD; with Putidaredoxin (Pseudomonas putida); Putidaredoxin reductase CamA (Pseudomonas putida)
T1 sequence (A1TY82 1-470): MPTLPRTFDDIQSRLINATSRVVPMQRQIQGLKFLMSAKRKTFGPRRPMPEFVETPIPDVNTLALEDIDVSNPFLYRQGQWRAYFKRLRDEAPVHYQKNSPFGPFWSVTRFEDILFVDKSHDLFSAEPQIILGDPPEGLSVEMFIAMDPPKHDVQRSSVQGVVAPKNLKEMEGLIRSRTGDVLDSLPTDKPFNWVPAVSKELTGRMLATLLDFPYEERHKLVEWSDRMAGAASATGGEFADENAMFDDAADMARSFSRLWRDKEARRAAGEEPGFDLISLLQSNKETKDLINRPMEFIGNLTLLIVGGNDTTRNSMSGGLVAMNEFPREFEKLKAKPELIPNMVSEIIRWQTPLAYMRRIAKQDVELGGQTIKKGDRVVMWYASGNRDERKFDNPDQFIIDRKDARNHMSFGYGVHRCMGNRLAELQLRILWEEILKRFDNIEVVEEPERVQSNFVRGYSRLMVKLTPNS
Test: whole-cell biotransformation, GC analysis of products
Type: cell-based
Conditions: 10 mM substrate, pH 7.0, 30 °C, resting E. coli cells OD600 30 with 1% glucose, CamA/CamB and FadL co-expressed; product alpha,omega-dodecanediol

SMILES: CCCCCCCCCCCCO [A, 1-dodecanol]
- whole-cell biotransformation, GC analysis of products: CYP153A33-encoding gene was co-expressed with CamAB redox proteins for the whole-cell biotransformation of 1-dodecanol
